Experimental data taken from patent US20230203023A1, “SALT AND CRYSTAL FORMS OF GLP-1R AGONISTS AND USES THEREOF” (QILU REGOR THERAPEUTICS INC., priority 2020, published 2023).
Where a name gives a salt, the structure may show the parent alone.

Columns and labels:
Type in all cases: physicochemical
[1] = Solid stability evaluation (II/II), HPLC in triplicate
Procedure: The chemical stability of 1:1 Compound II Citrate Salt (Form A) and 1:1 Compound II Tris Salt (Form B) was further evaluated at solid state, samples were stored under the ambient condition or 40° C./75% RH for 1 day and 3 days, respectively.

[2] = Solution stability evaluation in SGF (pH 1.8) and pH 8.0 buffer at RT
Procedure: (§1) Weigh 100 mg of sodium chloride and 50 mg of Triton X-100 into a 50-mL volumetric flask. Add appropriate volume of purified water and sonicate until all solids are completely dissolved. Add about 68 μL of 12 M HCl and sufficient purified water closely to the target volume and adjust to pH 1.8. Dilute to volume with purified water, mix well and check the pH with a pH meter.
Add sufficient purified water closely to the target volume and adjust to pH 8.0. Dilute to volume with purified water, mix well and check the pH with a pH meter. […]
Solution stability was evaluated for 1:1 Compound II Citrate Salt (Form A) and 1:1 Compound II Tris Salt (Form B) in SGF (pH 1.8) and pH 8.0 buffer at RT. Clear solutions were prepared at two concentrations (0.01 mg/mL, 0.05 mg/mL) and then placed at RT for 6 hours, 1/5 days or 6 hours, 1/3/7 days. […] The HPLC purity and pH value were tested and the results were summarized from Table 7-3-1 to Table 7-3-4.

[3] = Kinetic solubility test in water and bio-relevant media (SGF, FaSSIF, FeSSIF); conditions: for S: solubility: 37° C.; for Purity (%), area percentage of API: for reference only (suspensions); for FC: form change: residual solids by XRPD; for pH: supernatant
Procedure: as §1
Weigh 170 mg of sodium phosphate monobasic, 21 mg of sodium hydroxide and 310 mg of sodium chloride, 110 mg of SIF powder into a 50-mL volumetric flask. Add appropriate volume of purified water and sonicate until all solids are completely dissolved. Add sufficient purified water closely to the target volume and adjust to pH 6.5. Dilute to volume with purified water, mix well and check the pH with a pH meter.
Weigh 0.41 mL of glacial acetic acid, 202 mg of sodium hydroxide and 594 mg of sodium chloride, 560 mg of SIF powder into a 50-mL volumetric flask. Add appropriate volume of purified water to dissolve the solids. Then add sufficient purified water closely to the target volume and adjust to pH 5.0. Dilute to volume with purified water, mix well and check the pH with a pH meter.
Kinetic solubility was evaluated in water and three bio-relevant media (SGF, FaSSIF and FeSSIF) for 1/4/24 hours. 3-4 mg of solids were suspended in 3 mL each medium (solid loading: 1 mg/mL, calculated using freeform) to get a suspension, followed by rolling (25 rpm) at 37° C. for 1/4/24 hours. At each time point, ˜1.0 mL of suspension was sampled out for centrifugation (12000 rpm, 2 min) and filtration through 0.45 μm PTFE membrane to obtain supernatant for HPLC and pH tests, the residual solids were analyzed by XRPD.
Kinetic solubility was evaluated for 1:1 Compound II Citrate Salt (Form A), 1:1 Compound II Tris Salt (Form B), and freeform of Compound II in water and three bio-relevant media (SGF, FaSSIF and FeSSIF) for 1/4/24 hours. 3-4 mg of solids were suspended in 3 mL each medium (solid loading:
1 mg/mL, calculated using freeform) to get a suspension, followed by rolling (25 rpm) at 37° C. for 1/4/24 hours. At each time point, ˜1.0 mL of suspension was sampled out for centrifugation (12000 rpm, 2 min) and filtration through 0.45 μm PTFE membrane to obtain supernatant for HPLC and pH tests, the residual solids were analyzed by XRPD. […] The purity results were for reference only since the samples were all suspensions.

[4] = 0.01 mg/mL, pH 1.8 (SGF), Initial
[5] = 0.01 mg/mL, pH 1.8 (SGF), RT, 6 hours
[6] = 0.01 mg/mL, pH 8.0 (50 mM phosphate), Initial
[7] = 0.01 mg/mL, pH 8.0 (50 mM phosphate), RT, 6 hours
[8] = 0.05 mg/mL, pH 1.8 (SGF), Initial
[9] = 0.05 mg/mL, pH 1.8 (SGF), RT, 6 hours
[10] = 0.05 mg/mL, pH 8.0 (50 mM phosphate), Initial
[11] = 0.05 mg/mL, pH 8.0 (50 mM phosphate), RT, 6 hours
[12] = 1 day, 0.01 mg/mL, pH 1.8 (SGF), RT
[13] = 1 day, 0.01 mg/mL, pH 8.0 (50 mM phosphate), RT
[14] = 1 day, 0.05 mg/mL, pH 1.8 (SGF), RT
[15] = 1 day, 0.05 mg/mL, pH 8.0 (50 mM phosphate), RT
[16] = 5 days, 0.01 mg/mL, pH 1.8 (SGF), RT
[17] = 5 days, 0.01 mg/mL, pH 8.0 (50 mM phosphate), RT
[18] = 5 days, 0.05 mg/mL, pH 1.8 (SGF), RT
[19] = 5 days, 0.05 mg/mL, pH 8.0 (50 mM phosphate), RT

N#Cc1ccc(COc2cccc(C3=CCN(Cc4nc5ccc(C(=O)O)cc5n4C[C@@H]4CCO4)CC3)n2)c(F)c1 [Citrate salt Form A, (S)-2-((6-((4-cyano-2-fluorobenzyl)oxy)-3′,6′-dihydro-[2,4′-bipyridin]-1′(2′H)-yl)methyl)-1-(oxetan-2-ylmethyl)-1H-benzo[d]imidazole-6-carboxylic acid]
Ave. Purity (area %) ([1]; 40° C./75% RH (open), 1 day): 97.8 area % | Ave. Purity (area %) ([1]; 40° C./75% RH (open), 3 days): 97.9 area % | Ave. Purity (area %) ([1]; Ambient condition (open), 1 day): 97.8 area % | Ave. Purity (area %) ([1]; Ambient condition (open), 3 days): 97.8 area % | Ave. Purity (area %) ([1]; Initial): 97.9 area % | Purity (% area) [2, 4]: 100.00 % area | pH [2, 4]: 1.8 | Purity (% area) [2, 5]: 100.00 % area | Purity vs. Initial (%) [2, 5]: 100.0% | pH [2, 5]: 1.8 | Purity (% area) [2, 6]: 98.67 % area | pH [2, 6]: 8.0 | Purity (% area) [2, 7]: 97.89 % area | Purity vs. Initial (%) [2, 7]: 99.2% | pH [2, 7]: 8.0 | Purity (% area) [2, 8]: 97.84 % area | pH [2, 8]: 1.8 | Purity (% area) [2, 9]: 97.54 % area | Purity vs. Initial (%) [2, 9]: 99.7% | pH [2, 9]: 1.8 | Purity (% area) [2, 10]: 98.22 % area | pH [2, 10]: 8.0 | Purity (% area) [2, 11]: 98.03 % area | Purity vs. Initial (%) [2, 11]: 99.8% | pH [2, 11]: 8.0 | Purity (% area) [2, 12]: 98.51 % area | Purity vs. Initial (%) [2, 12]: 98.5% | pH [2, 12]: 1.8 | Purity (% area) [2, 13]: 97.36 % area | Purity vs. Initial (%) [2, 13]: 98.7% | pH [2, 13]: 8.0 | Purity (% area) [2, 14]: 96.61 % area | Purity vs. Initial (%) [2, 14]: 98.7% | pH [2, 14]: 1.8 | Purity (% area) [2, 15]: 97.95 % area | Purity vs. Initial (%) [2, 15]: 99.7% | pH [2, 15]: 8.0 | Purity (% area) [2, 16]: 94.05 % area | Purity vs. Initial (%) [2, 16]: 94.1% | pH [2, 16]: 1.9 | Purity (% area) [2, 17]: 97.14 % area | Purity vs. Initial (%) [2, 17]: 98.5% | pH [2, 17]: 7.9 | Purity (% area) [2, 18]: 92.31 % area | Purity vs. Initial (%) [2, 18]: 96.1% | pH [2, 18]: 1.8 | Purity (% area) [2, 19]: 97.75 % area | Purity vs. Initial (%) [2, 19]: 99.5% | pH [2, 19]: 8.0 | S: solubility ([3]; FaSSIF, 1 hour): 100 µg/mL | Purity (%), area percentage of API ([3]; FaSSIF, 1 hour): 94.86% | S: solubility ([3]; FaSSIF, 4 hours): 20 µg/mL | Purity (%), area percentage of API ([3]; FaSSIF, 4 hours): 76.06% | S: solubility ([3]; FaSSIF, 24 hours): 9 µg/mL | Purity (%), area percentage of API ([3]; FaSSIF, 24 hours): 61.96% | S: solubility ([3]; FeSSIF, 1 hour): 200 µg/mL | Purity (%), area percentage of API ([3]; FeSSIF, 1 hour): 98.94% | S: solubility ([3]; FeSSIF, 4 hours): 300 µg/mL | Purity (%), area percentage of API ([3]; FeSSIF, 4 hours): 95.25% | S: solubility ([3]; FeSSIF, 24 hours): 90 µg/mL | Purity (%), area percentage of API ([3]; FeSSIF, 24 hours): 79.88% | S: solubility ([3]; H2O, 1 hour): 20 µg/mL | Purity (%), area percentage of API ([3]; H2O, 1 hour): 100.00% | S: solubility ([3]; H2O, 4 hours): 20 µg/mL | Purity (%), area percentage of API ([3]; H2O, 4 hours): 91.26% | S: solubility ([3]; H2O, 24 hours): 50 µg/mL | Purity (%), area percentage of API ([3]; H2O, 24 hours): 86.05% | S: solubility ([3]; SGF, 1 hour): 500 µg/mL | Purity (%), area percentage of API ([3]; SGF, 1 hour): 96.79% | S: solubility ([3]; SGF, 4 hours): 80 µg/mL | Purity (%), area percentage of API ([3]; SGF, 4 hours): 91.83% | S: solubility ([3]; SGF, 24 hours): 60 µg/mL | Purity (%), area percentage of API ([3]; SGF, 24 hours): 90.59% | FC: form change ([3]; FaSSIF, 1 hour): No | FC: form change ([3]; FaSSIF, 4 hours): No | FC: form change ([3]; FaSSIF, 24 hours): Yes | FC: form change ([3]; FeSSIF, 1 hour): No | FC: form change ([3]; FeSSIF, 24 hours): Yes | FC: form change ([3]; H2O, 1 hour): No | FC: form change ([3]; H2O, 4 hours): No | FC: form change ([3]; H2O, 24 hours): No | FC: form change ([3]; SGF, 1 hour): Yes | FC: form change ([3]; SGF, 4 hours): Yes | FC: form change ([3]; SGF, 24 hours): Yes | pH ([3]; FaSSIF, 1 hour): 6.3 | pH ([3]; FaSSIF, 4 hours): 6.3 | pH ([3]; FaSSIF, 24 hours): 6.0 | pH ([3]; FeSSIF, 1 hour): 5.0 | pH ([3]; FeSSIF, 4 hours): 5.0 | pH ([3]; FeSSIF, 24 hours): 4.9 | pH ([3]; H2O, 1 hour): 4.8 | pH ([3]; H2O, 4 hours): 4.2 | pH ([3]; H2O, 24 hours): 3.4 | pH ([3]; SGF, 1 hour): 1.9 | pH ([3]; SGF, 4 hours): 1.9 | pH ([3]; SGF, 24 hours): 1.9 | Solubility in SGF, FaSSIF and FeSSIF compared with freeform ([3]; within 1 hour): higher than that of freeform
